{"source": "patent US11369585B2", "about": "“Compositions, methods, systems and/or kits for preventing and/or treating neoplasms” (Research Cancer Institute of America, priority 2017, dated 2022)", "key": {"[1]": {"tested_on": "serous ovarian carcinoma lesions", "assay": "Case study 2: whole body PET scan and abdominal CT scan restaging", "details": "Niraparib 300 mg daily only"}, "[2]": {"details": "cited from earlier work"}, "glioma cells": {"tested_on": "glioma cells", "details": "cited from earlier work"}, "[3]": {"tested_on": "triple negative breast cancer", "details": "cited from earlier work"}, "[4]": {"tested_on": "stage four pancreatic cancer", "assay": "Case study 3: laboratory tests (VEGF, IL-8, TGF, CA 19.9)", "format": "in vivo, human", "details": "two months without epigenetic therapies, Lynparza continued; increased from 8565", "source_text": "(§1) This is a case study of a person with history of stage four pancreatic cancer who was diagnosed after abdominal pain, with adenocarcinoma of pancreas metastasized to their liver. They had explored all potential therapies and their oncologist had given them less than 3 months to live and had referred them to hospice.\nThey were immediately started on daily IV epigenetic therapies in combination with PARP inhibitors, which they received for two weeks after which their laboratory tests were repeated.\n(§2) After two weeks of epigenetic therapies, his VEGF decreased from 248 to 70.\n(§3) Thus, Lynparza alone was not sufficient to retard tumor growth. Upon their return to the clinic, their tumor marker CA 19.9 was analyzed."}, "[5]": {"tested_on": "cfDNA somatic alterations", "assay": "Case study 3: Guardant360 % cfDNA with somatic alterations", "format": "in vivo, human", "details": "Lynparza alone", "source_text": "Therefore, clinical correlation is advised.\nas §2\nFor example, KRAS mutant allele frequency (MAF) decreased from over 50 percent to 5.6, TP53 decreased from over 50 percent down to 5.1 percent (FIG. 19)."}, "[6]": {"tested_on": "adenocarcinoma of pancreas metastasized to liver", "assay": "Case study 3: clinical course", "format": "in vivo, human", "details": "epigenetic therapies stopped, Lynparza continued", "source_text": "as §1\nThey were able to walk again independently. They started to do clinically well. […] Edema in their lower extremities improved.\nas §3"}, "[7]": {"details": "abdominal CT about one month after stopping epigenetic therapies, from 16 mm"}}}
{"smiles": "NC(=O)c1cccc2cn(-c3ccc([C@@H]4CCCNC4)cc3)nc12", "note": "[Niraparib]", "values": [{"measurement": "abdominal mesenteric artery LN size", "setting": "[1]; [7]", "value": 28, "unit": "mm"}, {"measurement": "retroperitoneal node size", "setting": "[1]; [7]", "value": 21, "unit": "mm"}, {"measurement": "periaortic nodes size", "setting": "[1]; abdominal CT about one month after stopping epigenetic therapies, from 24 mm", "value": 32, "unit": "mm"}, {"measurement": "overall response on abdominal CT scan", "setting": "[1]; about one month after stopping epigenetic therapies", "value": "mixed response with progression"}]}
{"smiles": "O=c1c(O)c(-c2ccc(O)c(O)c2)oc2cc(O)cc(O)c12", "note": "[quercetin]", "values": [{"measurement": "water solubility", "setting": "[2]", "value": "not water soluble"}, {"measurement": "effect on angiogenesis", "setting": "glioma cells", "value": "suppression of angiogenesis"}]}
{"smiles": "NC(=O)c1ccc(I)c([N+](=O)[O-])c1", "note": "[Iniparib]", "values": [{"measurement": "phase II trial outcome", "setting": "[3]; in vivo", "value": "promising results"}, {"measurement": "survival in phase III trial", "setting": "[3]; patients also received cytotoxic chemotherapy", "value": "no improvement in survival"}]}
{"smiles": "O=C(c1cc(Cc2n[nH]c(=O)c3ccccc23)ccc1F)N1CCN(C(=O)C2CC2)CC1", "note": "[Lynparza]", "values": [{"measurement": "tumor marker CA 19.9", "setting": "[4]", "value": 45988}, {"measurement": "cfDNA gene alterations (FGF2, C Myc, EGFR, PI3K, CDK4, CDK6, NF-1, KIT, TP53, PDGF, KRAS, BRCA1)", "setting": "[5]", "value": "did not change"}, {"measurement": "disease course", "setting": "[6]", "value": "their disease progressed"}]}
